Assay results published in BindingDB's records for doi:10.1016/j.bmc.2020.115818 (Taisho Pharmaceutical, 2020).

Test: Inhibition of F protein in Respiratory syncytial virus A2 infected in HepG2 cells assessed as reduction in virus-induced cytopathic effect incubated for 4 days by XTT assay

Cc1ccc2c(c1)C(=O)N1CCCC[C@H]1c1cc3nc([C@H]4C[C@H](O)C4)cc(n3n1)N(C)CCNC(=O)CO2
EC50: 770 pM
